{"source": "patent US20030109678A1", "about": "“Methods and means for regulation of gene expression” (priority 2000, published 2003)", "origin": "cited, not measured here", "biological_target": "mutated form of the human estrogen receptor (ER), G521R mutation (Homo sapiens, UniProt P03372, G521R)", "sequence (P03372 whole entry G521R)": "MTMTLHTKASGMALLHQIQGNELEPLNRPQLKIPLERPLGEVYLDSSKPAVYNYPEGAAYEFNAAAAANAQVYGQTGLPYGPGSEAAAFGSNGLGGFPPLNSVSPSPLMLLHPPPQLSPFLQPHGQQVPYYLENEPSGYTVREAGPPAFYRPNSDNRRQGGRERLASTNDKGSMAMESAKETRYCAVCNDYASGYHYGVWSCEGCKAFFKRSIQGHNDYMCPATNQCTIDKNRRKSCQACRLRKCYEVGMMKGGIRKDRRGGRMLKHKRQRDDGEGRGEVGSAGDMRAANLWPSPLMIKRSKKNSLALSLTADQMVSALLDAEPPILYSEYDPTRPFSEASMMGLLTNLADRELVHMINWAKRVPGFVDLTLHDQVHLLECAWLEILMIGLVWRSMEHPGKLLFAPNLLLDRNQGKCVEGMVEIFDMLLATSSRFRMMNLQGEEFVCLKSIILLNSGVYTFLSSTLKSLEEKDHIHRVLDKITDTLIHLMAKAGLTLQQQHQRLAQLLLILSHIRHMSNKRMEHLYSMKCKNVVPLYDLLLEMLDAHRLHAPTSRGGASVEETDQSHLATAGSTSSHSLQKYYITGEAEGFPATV", "data": [{"substance": "4-hydroxytamoxifen", "values": [{"measurement": "binding by G521R ER", "value": "efficiently binds"}]}]}
